Holding throughout (assay type): cell-based
The subject of assay [1] is C. guilliermondii T-47. The experiment in a line: MIC80 broth double-dilution assay. The note with it: YPAD medium, 30° C., 24 h. How it is done: (§1) The antifungal activities of the 24 azole-COX inhibitor hybrids were evaluated against a panel of 16 representative strains of different species of the genus Candida. Candida species cause both superficial and systemic infections. The panel included strains of C. albicans, C. glabrata, C. parapsilosis, C. tropicalis, C. guilliermondii, C. dubliniensis, and C. auris (Table S2). To evaluate antifungal activity, the minimal inhibitory concentration 80% (MIC80) values were determined, which were defined as the lowest drug concentrations with turbidity (measured at OD600) less than or equal to that of specific 1:5 dilutions of the growth control. As controls, FLC and VOR, were tested.
(§2) C. albicans, C. glabrata, C. parapsilosis, C. guilliermondii, C. tropicalis, and C. dubliniensis MICs were determined using CLSI M27-A3 guidelines with minor modifications. Starter cultures were streaked from glycerol stock onto YPAD agar plates and grown for 24 h at 30° C. Colonies were suspended in 1 mL PBS and diluted to 1×10^−3 OD600 and then diluted 1:100 into fresh medium. Hybrids dissolved in DMSO were added to YPAD broth (32 μL stock solution in 1218 μL of YPAD broth), and serial double dilutions of hybrids in YPAD were prepared in flat-bottomed 96-well microplates (Corning) to enable testing of concentrations ranging from 64 μg/mL to 0.003 μg/mL. Control wells with yeast cells but no drug and blank wells containing only YPAD were prepared. An equal volume (100 μL) of yeast suspensions in YPAD broth was added to each well with the exceptions of the blank wells. MIC values (Tables S4-S6) were determined after 24 h at 30° C. by measuring the OD600 using a plate reader (Infinite M200 PRO, Tecan). MIC values were defined as the point at which the OD600 was reduced by >80% compared to the no-drug wells. Each concentration was tested in triplicate, and results were confirmed by two independent sets of experiments. FLC and VOR were used as control drugs.

The test system of assay [2] is C. albicans SC5314. The experiment in a line: MIC80 broth double-dilution assay. The note with it: YPAD medium, 30° C., 24 h. How it is done: as §1
(§3) MIC80 values were determined using the broth microdilution method over a concentration range of 0.003-64 μg/mL. Orange circles represent C. albicans strains, yellow circles represent C. glabrata strains, and green circles represent C. parapsilosis, C. tropicalis, C. dubliniensis and C. auris. Cells were grown in YPAD medium at 30° C. (For C. auris strains 37° C.) 24 h. Each concentration was tested in triplicate, and results were confirmed in at least two independent experiments.
as §2

The subject of assay [3] is C. dubliniensis T-99. The experiment in a line: MIC80 broth double-dilution assay. The conditions noted are these: YPAD medium, 30° C., 24 h. The method, then:
as §1, §3, §2

Assay [4] relates to C. tropicalis 660. The experiment in a line: MIC80 broth double-dilution assay. The note with it: YPAD medium, 30° C., 24 h. The method, then: as §1, §3, §2
Assay [5] deals with C. parapsilosis ATCC 22019. The experiment in a line: MIC80 broth double-dilution assay. The note with it: YPAD medium, 30° C., 24 h. How it is done: as §1, §3, §2
In assay [6] the test system is C. albicans ATCC 24433. The experiment in a line: MIC80 broth double-dilution assay. The note with it: YPAD medium, 30° C., 24 h. The method, then: as §1, §3, §2
The subject of assay [7] is C. albicans P-87. The experiment in a line: MIC80 broth double-dilution assay. The note with it: YPAD medium, 30° C., 24 h. How it is done:
as §1, §3, §2

In assay [8] the test system is C. albicans ATCC 90028. The experiment in a line: MIC80 broth double-dilution assay. The note with it: YPAD medium, 30° C., 24 h. How it is done: as §1, §3, §2
Assay [9] concerns C. albicans SN152. The experiment in a line: MIC80 broth double-dilution assay. The note with it: YPAD medium, 30° C., 24 h; parent strain of the erg11ΔΔ/erg3ΔΔ mutant. How it is done:
as §1, §3
(§4) The clinically used FLC and VOR act primarily by preventing ergosterol biosynthesis via inhibition of CYP51. Analysis was done to determine whether fungal growth inhibition by the hybrids required the presence of the ERG11 gene that encodes for CYP51. The antifungal activities of hybrids 1 and 5 and of FLC and VOR were determined against an erg11ΔΔ/erg3ΔΔ mutant C. albicans strain and against C. albicans SN152 from which this double knockout strain was derived (Table S2). […] Yeast growth was followed at OD600 over 48 h in 96-well plates containing serial double dilutions of the tested hybrids.
as §2

Assay [10] has as its system C. albicans 742 (erg11ΔΔ/erg3ΔΔ mutant C. albicans strain). The experiment in a line: MIC80 broth double-dilution assay, strain lacking CYP51. The conditions noted are these: YPAD medium, 30° C., 24 h; erg11ΔΔ/erg3ΔΔ mutant lacking CYP51. How it is done:
as §1, §4, §2

In brackets after ≈: the same amount, converted by molar mass. Where only a bound is given, the exact number is not on record here.

As for `COc1ccc2cc([C@@H](C)C(=O)NC[C@@](O)(Cn3cncn3)c3ccc(F)cc3F)ccc2c1` [Hybrid 11], the “MIC80 against C. guilliermondii T-47” value in assay [1] came out at 8 µg/mL (≈ 17.1 µM). Also, in assay [2], the “MIC80 against C. albicans SC5314” value was 0.5 µg/mL (≈ 1.07 µM). In addition, the “MIC80 against C. dubliniensis T-99” value in assay [3] was 8 µg/mL (≈ 17.1 µM). For the same compound, in [4], the “MIC80 against C. tropicalis 660” value amounted to 8 µg/mL (≈ 17.1 µM). The “MIC80 against C. parapsilosis 22019” value in assay [5] is 4 µg/mL (≈ 8.57 µM). Further, the “MIC80 against C. albicans 24433” value in [6] came out at 1 µg/mL (≈ 2.14 µM). In addition, the “MIC80 against C. albicans P-87” value in assay [7] was 1 µg/mL (≈ 2.14 µM). In assay [8], the “MIC80 against C. albicans 90028” value amounted to 1 µg/mL (≈ 2.14 µM). For the same compound, the “MIC80 against C. albicans SN152” value in [9] came to 0.5 µg/mL (≈ 1.07 µM). In addition, the “MIC80 against C. albicans 742” value in assay [10] was more than 64 µg/mL.
For `COc1ccc2cc([C@H](C)C(=O)NC[C@@](O)(Cn3cncn3)c3ccc(F)cc3F)ccc2c1` [Hybrid 12], in assay [1], the “MIC80 against C. guilliermondii T-47” value worked out at 32 µg/mL (≈ 68.6 µM). Moreover, in assay [2], the “MIC80 against C. albicans SC5314” value worked out at 2 µg/mL (≈ 4.29 µM). Also, the “MIC80 against C. dubliniensis T-99” value in assay [3] was determined as 32 µg/mL (≈ 68.6 µM). For the same compound, the “MIC80 against C. tropicalis 660” value in assay [4] was more than 64 µg/mL. For the same compound, the “MIC80 against C. parapsilosis 22019” value in assay [5] was 4 µg/mL (≈ 8.57 µM). In assay [6], the “MIC80 against C. albicans 24433” value was determined as 4 µg/mL (≈ 8.57 µM). Besides, the “MIC80 against C. albicans P-87” value in assay [7] was 4 µg/mL (≈ 8.57 µM). For the same compound, in assay [8], the “MIC80 against C. albicans 90028” value was 4 µg/mL (≈ 8.57 µM). Further, the “MIC80 against C. albicans SN152” value in assay [9] was determined as 2 µg/mL (≈ 4.29 µM). Besides, the “MIC80 against C. albicans 742” value in assay [10] was more than 64 µg/mL.
For the compound `C[C@H](C(=O)NC[C@](O)(Cn1cncn1)c1ccc(F)cc1F)c1cccc(C(=O)c2ccccc2)c1` [Hybrid 13], the “MIC80 against C. guilliermondii T-47” value in assay [1] turned out to be 32 µg/mL (≈ 65.2 µM). In addition, the “MIC80 against C. albicans SC5314” value in [2] was 2 µg/mL (≈ 4.08 µM). Besides, in assay [3], the “MIC80 against C. dubliniensis T-99” value amounted to 64 µg/mL (≈ 130 µM). In addition, in [4], the “MIC80 against C. tropicalis 660” value was found to be 16 µg/mL (≈ 32.6 µM). The “MIC80 against C. parapsilosis 22019” value in [5] came to 8 µg/mL (≈ 16.3 µM). In addition, the “MIC80 against C. albicans 24433” value in assay [6] is 4 µg/mL (≈ 8.15 µM). The “MIC80 against C. albicans P-87” value in [7] was 4 µg/mL (≈ 8.15 µM). Further, the “MIC80 against C. albicans 90028” value in assay [8] was 2 µg/mL (≈ 4.08 µM). In assay [9], the “MIC80 against C. albicans SN152” value is 2 µg/mL (≈ 4.08 µM). For the same compound, the “MIC80 against C. albicans 742” value in [10] is more than 64 µg/mL.
For `C[C@@H](C(=O)NC[C@](O)(Cn1cncn1)c1ccc(F)cc1F)c1cccc(C(=O)c2ccccc2)c1` [Hybrid 14], the “MIC80 against C. guilliermondii T-47” value in assay [1] worked out at 16 µg/mL (≈ 32.6 µM). Also, the “MIC80 against C. albicans SC5314” value in assay [2] was determined as 1 µg/mL (≈ 2.04 µM). Besides, the “MIC80 against C. dubliniensis T-99” value in assay [3] is 4 µg/mL (≈ 8.15 µM). Also, in assay [4], the “MIC80 against C. tropicalis 660” value worked out at 16 µg/mL (≈ 32.6 µM). Moreover, in assay [5], the “MIC80 against C. parapsilosis 22019” value is 8 µg/mL (≈ 16.3 µM). Also, the “MIC80 against C. albicans 24433” value in [6] was found to be 1 µg/mL (≈ 2.04 µM). In addition, the “MIC80 against C. albicans P-87” value in [7] came to 1 µg/mL (≈ 2.04 µM). Besides, the “MIC80 against C. albicans 90028” value in assay [8] was determined as 1 µg/mL (≈ 2.04 µM). Also, the “MIC80 against C. albicans SN152” value in assay [9] was 0.5 µg/mL (≈ 1.02 µM). Moreover, the “MIC80 against C. albicans 742” value in [10] is more than 64 µg/mL.
Take `C[C@@H](C(=O)NC[C@@](O)(Cn1cncn1)c1ccc(F)cc1F)c1cccc(C(=O)c2ccccc2)c1` [Hybrid 15]: in assay [1], the “MIC80 against C. guilliermondii T-47” value is more than 64 µg/mL. Further, the “MIC80 against C. albicans SC5314” value in assay [2] was more than 64 µg/mL. Further, the “MIC80 against C. dubliniensis T-99” value in [3] came out at 16 µg/mL (≈ 32.6 µM). The “MIC80 against C. tropicalis 660” value in [4] was more than 64 µg/mL. The “MIC80 against C. parapsilosis 22019” value in assay [5] was more than 64 µg/mL. Moreover, the “MIC80 against C. albicans 24433” value in [6] is more than 64 µg/mL. Further, the “MIC80 against C. albicans P-87” value in assay [7] is more than 64 µg/mL. For the same compound, in [8], the “MIC80 against C. albicans 90028” value was more than 64 µg/mL. In addition, the “MIC80 against C. albicans SN152” value in assay [9] was more than 64 µg/mL. The “MIC80 against C. albicans 742” value in [10] is more than 64 µg/mL.
`C[C@H](C(=O)NC[C@@](O)(Cn1cncn1)c1ccc(F)cc1F)c1cccc(C(=O)c2ccccc2)c1` [Hybrid 16]: the “MIC80 against C. guilliermondii T-47” value in assay [1] was more than 64 µg/mL. Besides, the “MIC80 against C. albicans SC5314” value in assay [2] was more than 64 µg/mL. Further, the “MIC80 against C. dubliniensis T-99” value in [3] worked out at 16 µg/mL (≈ 32.6 µM). Moreover, the “MIC80 against C. tropicalis 660” value in assay [4] is more than 64 µg/mL. Moreover, in [5], the “MIC80 against C. parapsilosis 22019” value is more than 64 µg/mL. Further, the “MIC80 against C. albicans 24433” value in [6] is more than 64 µg/mL. The “MIC80 against C. albicans P-87” value in [7] was more than 64 µg/mL. For the same compound, the “MIC80 against C. albicans 90028” value in assay [8] is more than 64 µg/mL. Moreover, the “MIC80 against C. albicans SN152” value in [9] is more than 64 µg/mL. Moreover, in assay [10], the “MIC80 against C. albicans 742” value was more than 64 µg/mL.

Source of the values: US20250018048A1, “FLUCONAZOLE-COX INHIBITOR HYBRIDS: A DUAL-ACTING CLASS OF ANTIFUNGAL AZOLES” (Ramot at Tel-Aviv University Ltd., priority 2022, published 2025).
